Key:
Assay type in all cases: in vivo
[1] = system: Penncross creeping bentgrass; experiment: Turf quality visual rating at high temperature treatment (Example 1); details: high temperature 35/30° C., biweekly foliar application
Description: (§1) The following test methods were used to compare the effectiveness of a phthalocyanine composition according to the invention with known compositions. The following compositions were used in the experiments: Pigment Green 7 obtained from Sun Chemical Corporation as the water-dispersible product SUN T-64-1660 (containing 45 to 55 wt. % of Pigment Green 7) was used alone. A mixture of Pigment Green 7 and fosetyl-al was used as the commercially available product Chipco® Signature™ fungicide from Bayer Environmental Science, Montvale, N.J. The compound fosetyl-al was used as Chipco® Aliette® WDG fungicide available from Bayer Environmental Science, Montvale N.J.
(§2) Seeds of “Penncross” creeping bentgrass were sown in polyvinyl chloride (PVC) tubes (10 cm in diameter and 20 cm in length) filled with coarse sand. Plants were kept in a growth chamber for 90 days before treatment stated to allow root and canopy establishment. The daily temperature in the growth chamber was 20/16° C., the photosynthetic photon flux density was 400 μmol m−2 s−1, and the photoperiod was 12 hours/day. Turf was mowed twice weekly at 4 mm with scissors, irrigated every other day until there was free drainage from the bottom of tubes, and fertilized weekly with 40 ml full-strength Hoagland's nutrient solution (Hoagland and Arnon, 1950). Insecticide was applied to kill whitefly when necessary. […]

[2] = system: Penncross creeping bentgrass; experiment: Shoot growth rate in canopy height at high temperature treatment (Example 1); details: plants with and without pretreatment
Description: as §1, §2

[3] = system: Penncross creeping bentgrass; experiment: Carotenoids content at high temperature treatment (Example 1); details: plants with or without pretreatment
Description: as §1
Seeds of “Penncross” creeping bentgrass were sown in polyvinyl chloride (PVC) tubes (10 cm in diameter and 20 cm in length) filled with coarse sand. […]
Chlorophyll and carotenoids were extracted by soaking 50 mg fresh shoots in 20 ml dimethyl sulfoxide (DMSO) in the dark for 72 hours. Absorbance of each extractant at 663 nm, 645 nm, and 470 nm was used to determine chlorophyll content using the formula of Arnon (1949) and carotenoids content using the formula of Lichtenthaler and Wellburn (1983) Canopy photochemical efficiency was estimated by measuring chlorophyll fluorescence (Fv/Fm) using plant photosynthesis efficiency analyzer (available from ADC Bioscientific Limited, Herts, England).

[4] = system: Corn; experiment: Glasshouse study, soil drench applications of pigment on corn growth and photosynthesis (Example 10); details: for Chlorophyl: CM1000 meter readings; for Total height (avg, cm): soil to youngest fully expanded leaf tip; for Distance between collars (avg, cm): two top collars; for Net photosynthesis: youngest fully collared leaf
Experimental: A glasshouse study was conducted to determine the effect of soil drench applications of phthalocyanine pigment on corn growth and photosynthesis.
Corn was grown from seed in 6 inch (15 cm) pots in a potting soil mix. Pigment Green 7 was diluted in water in the four amounts per gallon (3.8 liter) of water indicated in the Table and applied directly to the soil. Treatments were initiated in March when corn was at the three leaf stage. Approximately 250 ml of the aqueous pigment mixture was applied to the soil on day 0 and day 6. On day 21 plants were placed in trays containing the pigment Water was maintained in the trays as needed to replenished evapotranspiration.
Net photosynthesis of the youngest fully collared leaf (i.e., leaf 7) was measured using a LiCor 6400 instrument as μmol m−2s−1 of CO2. Leaf chlorophyll measurements were made using a CM1000 leaf […] meter (Spectrum Technologies). Plant height, stem diameter, and leaf width were also measured at the end of the conclusion of the study.

[5] = system: Penncross creeping bentgrass; experiment: Influence of foliar applied phthalocyanine pigment on creeping bentgrass photosynthesis (Example 9)
Experimental: Studies carried out as a follow-up to Example 1 were conducted in 2005 to determine the influence of foliar applied phthalocyanine pigment on creeping bentgrass photosynthesis.
“Penncross” creeping bentgrass plants were grown in a growth chamber on a sand soil in PVC tubes (10 cm in diameter) maintained at 20° C. Plants were maintained at a canopy height of approximately 5 cm and a nutrient solution was applied weekly to maintain adequate fertility. Four plants were treated with Pigment Green 7 at a rate of 6.92 g/1000 sq. ft. (0.74 kg/ha) (with 0.6% Tween 20 being added to keep the pigment on the leaves for better absorption) and four plants were left untreated to serve as the controls (being sprayed with water only). Photochemical efficiency, chlorophyll content, and single leaf net photosynthesis were measured at one, three, seven, and fourteen days after application. Different light intensities of 1500, 750, 500, 250, 150, 50, and 0 μmol m−2 s−1 of photosynthetically active radiation (PAR, 400-700 nm) were generated inside the leaf chamber by an LED light source to generate a light response curve. Net photosynthesis was measured as the rate of CO2 uptake φmol m−2s−1). […] Photosynthesis was higher from the first day after application and all subsequent sampling dates. […] However at intensities of from 50 to 1500 μmol photons m−2 s−1 treated plants were more efficient in utilizing the constant amount of light produced in the leaf chamber.

[6] = 20° C., 6.92 g/1000 sq. ft. with 0.6% Tween 20, 1, 3, 7, 14 days after application

Pigment Green 7
Turf quality (visual, scale 0 to 9) ([1]; plants with pretreatment (sprayed 4 weeks before heat)): highest
Turf quality (visual, scale 0 to 9) ([1]; plants without pretreatment): higher turf quality than applications of Signature fungicide, Aliette fungicide, and water
Shoot growth rate in canopy height [2]: higher with application of Signature fungicide and Pigment Green 7 than with application of Aliette fungicide and water
Carotenoids content [3]: higher with application of Signature fungicide and Pigment Green 7 than with application of Aliette fungicide and water
Height soil to collar (avg, cm) ([4]; pigment concentration 1 g/gal): 58 cm
Leaf width (avg, cm) ([4]; pigment concentration 1 g/gal): 5.2 cm
Stem diameter (avg, cm) ([4]; pigment concentration 1 g/gal): 1.04 cm
Chlorophyl ([4]; pigment concentration 1 g/gal): 141
Total height (avg, cm) ([4]; pigment concentration 1 g/gal): 145 cm
Distance between collars (avg, cm) ([4]; pigment concentration 1 g/gal): 4.9 cm
Net photosynthesis ([4]; pigment concentration 1 g/gal): 13.0 μmol m−2s−1 of CO2
Height soil to collar (avg, cm) ([4]; pigment concentration 8 g/gal): 59 cm
Leaf width (avg, cm) ([4]; pigment concentration 8 g/gal): 5.6 cm
Stem diameter (avg, cm) ([4]; pigment concentration 8 g/gal): 0.99 cm
Chlorophyl ([4]; pigment concentration 8 g/gal): 122
Total height (avg, cm) ([4]; pigment concentration 8 g/gal): 148 cm
Distance between collars (avg, cm) ([4]; pigment concentration 8 g/gal): 5.5 cm
Net photosynthesis ([4]; pigment concentration 8 g/gal): 12.8 μmol m−2s−1 of CO2
Height soil to collar (avg, cm) ([4]; pigment concentration 16 g/gal): 55 cm
Leaf width (avg, cm) ([4]; pigment concentration 16 g/gal): 5.2 cm
Stem diameter (avg, cm) ([4]; pigment concentration 16 g/gal): 1.01 cm
Chlorophyl ([4]; pigment concentration 16 g/gal): 115
Total height (avg, cm) ([4]; pigment concentration 16 g/gal): 137 cm
Distance between collars (avg, cm) ([4]; pigment concentration 16 g/gal): 5.7 cm
Net photosynthesis ([4]; pigment concentration 16 g/gal): 13.6 μmol m−2s−1 of CO2
Height soil to collar (avg, cm) ([4]; pigment concentration 32 g/gal): 54 cm
Leaf width (avg, cm) ([4]; pigment concentration 32 g/gal): 5.6 cm
Stem diameter (avg, cm) ([4]; pigment concentration 32 g/gal): 1.00 cm
Chlorophyl ([4]; pigment concentration 32 g/gal): 132
Total height (avg, cm) ([4]; pigment concentration 32 g/gal): 132 cm
Distance between collars (avg, cm) ([4]; pigment concentration 32 g/gal): 6.0 cm
Net photosynthesis ([4]; pigment concentration 32 g/gal): 13.3 μmol m−2s−1 of CO2
Light compensation point ([5]; 6.92 g/1000 sq. ft. foliar application): unaltered by treatment
Photochemical efficiency (Fv/Fm), treated versus control plants [5, 6]: No differences
Total chlorophyll per gram of tissue, treated versus control plants [5, 6]: no statistically significant differences
Single leaf net photosynthesis (rate of CO2 uptake), treated versus control plants ([5]; all light intensities greater than 50 μmol photons m−2 s−1, 6.92 g/1000 sq. ft., from first day and all subsequent sampling dates): higher for treated plants compared to controls
Stability after foliar application (from higher net photosynthesis on every date) ([5]; on bentgrass leaves, 6.92 g/1000 sq. ft.): stable for at least fourteen days after foliar application
